Results on two compounds are retold here after PMC6394990, “Detailed characterization of the solution kinetics and thermodynamics of biotin, biocytin and HABA binding to avidin and streptavidin” (PLoS ONE, 2019).

What all share (type): physicochemical
Data set [1] is described as follows: Absorbance and fluorescence emission spectra, unbound probe. The note with it: unbound dye. The method, then: (§1) The lifetimes (τ), steady state anisotropies (rss), time-resolved anisotropies (rt) and quantum yields (QY) of the complexes (at 20 ± 0.1°C and pH 8) were collected with a dye-labeled B7 probe concentration of 20–40 nM and 1040–2080 nM of either protein (AV or SAV) to ensure that only one binding site in the tetramer was filled with a ligand (AB1 filling model).
(§2) The QY values were obtained by using a reference fluorophore of known quantum yield and were calculated according to Parker and Rees, where the reference dye was fluorescein in 0.1N sodium hydroxide solution [46]. The emission fluorescence scans were collected from 480 nm to 700 nm with the excitation light set at 460 nm provided by the xenon arc lamp described above. These measurements were made on the AB1 complexes at high protein concentration.
(§3) Supplementary file pone.0204194.s001.docx: S1 Fig Absorbance spectra of dye-labeled B7 probes and respective complexes with AV and SAV. […] The spectra are normalized to the calculated molar absorptivies. […] The labeled probes and protein concentrations were 1 μM and 10 μM, respectively. (DOCX) Click here for additional data file.
(§4) Supplementary file pone.0204194.s002.docx: S2 Fig Fluorescence emission spectra of dye-labeled B7 and respective complexes with AV and SAV. […] The probe and protein concentrations were 20 nM and 1040 nM (AB1 filling model), respectively. (DOCX) Click here for additional data file.

The target of data set [2] is T1, avidin (AV) (Gallus gallus, UniProt P02701).
T1 construct: purchased Calbiochem (La Jolla, CA)
The experiment in a line: Steady-state anisotropy (rss), AV complex. The note with it: for Steady State Anisotropy rss: AV complex (AB1), 20°C; for AV-increment (%): increase of rss against unbound; for rss, + AV: steady-state anisotropy. The method, then: as §1
The rss measurements were collected using the Giblin-Parkhurst modification of the Wampler-Desa method as described previously. The fluorescence signal was detected in a model A-1010 Alphascan fluorimeter (Photon Technologies, Inc., Birmingham, NJ) equipped with an R928 PMT (Hamamatsu, Bridgewater, NJ). The excitation was provided by an Ar^+ ion laser (Coherent Innova 70–4 Argon, Santa Clara, CA) at 488 nm and 5–10 mW of power incident on the sample. A photoelastic modulator (PEM-80; HINDS International, Inc., Portland, OR) was placed between the laser source and the sample compartment with a retardation level of 1.22π, and the PEM stress axis orientated 45° with respect to the E vector of the laser beam. Two signals were acquired with the PEM alternating between “on” and “off” positions for 10 seconds and the data fitted to a least squared straight line to minimize noise. A minimum of six of these independent measurements were averaged to acquire the rss values. The fluorimeter G factor was determined using a film polarizer and analyzer with an excitation at 488 nm provided by a xenon arc lamp (model A1010, Photon Technologies Inc, Princeton, NJ). The dissociation reactions of dye-labeled B7 and protein complexes were monitored by fluorescence changes and were also collected in the fluorimeter described above.

A short description of data set [3]: Quantum yields (QY), unbound probe. Conditions: unbound dye. The method, then:
as §1, §2

Data set [4] concerns the target T1, avidin (AV). The data set can be described thus: Absorbance and fluorescence emission spectra, AV complex. Conditions: for Maximum Absorbance / Maximum Emission: AV complex (AB1); for Abs (nm) / Emission (nm): complex with AV. The method, then: as §1, §2, §3, §4
Data set [5] concerns the target T1, avidin (AV). The experiment in a line: Fluorescence lifetimes, AV complex. Conditions: for Lifetime τ: AV complex (AB1), 20°C, pH 8; for t (1), fluorescence lifetime: complex with AV, t for BFl and BcO, average lifetime for B-DNAds*Fl, in ns. The method, then: as §1
The lifetimes were collected in a FluoTime100 fluorescence spectrometer (PicoQuant, GmbH, Berlin, Germany) with the excitation light source provided by a picosecond pulsed diode laser (PicoQuant, GmbH, Berlin, Germany) at 470 nm and 20 MHz. The emission was collected at 520 nm through a non-fluorescing 520 nm interference filter (Oriel Corp., Stratford, CT) followed by a liquid filter of 1cm path length containing 24 mM acetate buffered dichromate at pH 4, between the sample and detector to eliminate traces of excitation light. The fluorescence decays were fit by a nonlinear least-squares minimization based on the Marquardt algorithm embedded in the Fluofit software (PicoQuant GmbH). Twenty-eight decays were collected per sample, the decays were grouped in four sets, consisting of seven sample decays and one Instrument Response Function, IRF, for deconvolution proposes. The decay sets were globally fitted to mono- or bi-exponential decay models that were discriminated using the statistical parameter χ^2. The rt data were acquired with the fluorimeter described above equipped with a polarizer and an analyzer to acquire the parallel VV(t) and perpendicular VH(t) decays. The PicoQuant G factor was calculated according to: G = ∫HV(t)dt/∫HH(t)dt, where HV(t) and HH(t) were the decays collected with the emission polarizer selecting vertical and horizontal E-vector passing orientations, respectively, and the excitation polarizer set at horizontally position.

In another data set the target is T2, streptavidin (SAV) (Streptomyces avidinii, UniProt P22629).
T2 construct: purchased Sigma Aldrich (St. Louis, MO)
The data set can be described thus: Time-resolved anisotropy, cone angle, SAV complex. Conditions: complex with SAV. The method, then:
as §1
The lifetimes were collected in a FluoTime100 fluorescence spectrometer (PicoQuant, GmbH, Berlin, Germany) with the excitation light source provided by a picosecond pulsed diode laser (PicoQuant, GmbH, Berlin, Germany) at 470 nm and 20 MHz. […] The fluorescence decays were fit by a nonlinear least-squares minimization based on the Marquardt algorithm embedded in the Fluofit software (PicoQuant GmbH). […] The PicoQuant G factor was calculated according to: G = ∫HV(t)dt/∫HH(t)dt, where HV(t) and HH(t) were the decays collected with the emission polarizer selecting vertical and horizontal E-vector passing orientations, respectively, and the excitation polarizer set at horizontally position. […]
(§5) In a simple model, the transition moment is assumed to wobble within a cone of semi-apical angle Ω [59], where the cone axis is normal to the surface of a sphere that corresponds to the macromolecule. The angle Ω is calculated from Eq 14.

Data set [6] can be described thus: Time-resolved anisotropy, cone angle, unbound probe. Conditions: unbound dye. The method, then: The lifetimes were collected in a FluoTime100 fluorescence spectrometer (PicoQuant, GmbH, Berlin, Germany) with the excitation light source provided by a picosecond pulsed diode laser (PicoQuant, GmbH, Berlin, Germany) at 470 nm and 20 MHz. The emission was collected at 520 nm through a non-fluorescing 520 nm interference filter (Oriel Corp., Stratford, CT) followed by a liquid filter of 1cm path length containing 24 mM acetate buffered dichromate at pH 4, between the sample and detector to eliminate traces of excitation light. The fluorescence decays were fit by a nonlinear least-squares minimization based on the Marquardt algorithm embedded in the Fluofit software (PicoQuant GmbH). […] The PicoQuant G factor was calculated according to: G = ∫HV(t)dt/∫HH(t)dt, where HV(t) and HH(t) were the decays collected with the emission polarizer selecting vertical and horizontal E-vector passing orientations, respectively, and the excitation polarizer set at horizontally position. […]
as §5

Several values for one entry are separate records, joined by “and”; a condition that tells them apart may be missing. Equal entries are not always repeated.

T1 sequence (P02701 25-152): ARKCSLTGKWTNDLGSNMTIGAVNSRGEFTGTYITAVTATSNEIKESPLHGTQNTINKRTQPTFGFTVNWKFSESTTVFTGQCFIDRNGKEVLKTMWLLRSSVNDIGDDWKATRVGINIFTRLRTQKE
T2 sequence (P22629 25-183): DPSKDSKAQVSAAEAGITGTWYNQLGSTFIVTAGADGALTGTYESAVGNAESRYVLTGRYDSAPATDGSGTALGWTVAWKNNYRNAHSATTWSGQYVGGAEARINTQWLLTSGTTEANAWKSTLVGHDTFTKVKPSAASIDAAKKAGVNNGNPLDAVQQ

`O=C(CCCC[C@@H]1SC[C@@H]2NC(=O)N[C@@H]21)NCCNC(=O)c1ccc(-c2c3ccc(=O)cc-3oc3cc(O)ccc23)c(C(=O)O)c1` [BFl, Biotin-4-fluorescein]: in data set [1], the “Abs (nm)” value is listed as 494 nm and the “Emission (nm)” value amounted to 530 nm. In addition, on avidin (AV) [2], the “Steady State Anisotropy rss” value is given as 0.180 ± 0.003; the “AV-increment (%)” value was found to be 757.1%; the “rss, + AV” value turned out to be 0.18. For the same compound, in data set [3], the “488, correction, absR/abs” value is listed as 1; the QY is 0.52 and 0.52 ± 0.02; the “QY multiplied by the 488 correction absR/abs” value turned out to be 0.52. At avidin (AV) [4], the “Maximum Absorbance” value was found to be 498 nm, the “Maximum Emission” value was found to be 528 nm, the “Abs (nm)” value was found to be 498 nm and the “Emission (nm)” value was determined as 528 nm. At avidin (AV) [5], the “Lifetime τ” value amounted to 4.22 ± 0.01 ns and the “t (1), fluorescence lifetime” value is listed as 4.22 ± 0.01. Moreover, at streptavidin (SAV), the W turned out to be 51. The W in data set [6] came to 90 °.
With `NC(CCCCNC(=O)CCCC[C@@H]1SC[C@@H]2NC(=O)N[C@@H]21)C(=O)NCCCCCNC(=O)c1ccc(-c2c3cc(F)c(=O)cc-3oc3cc(O)c(F)cc23)c(C(=O)O)c1` (stereo partly drawn) [BcO, Oregon green 488 Biocytin], in data set [1], the “Abs (nm)” value stood at 495 nm and the “Emission (nm)” value is reported as 523 nm. For the same compound, on avidin (AV) [2], the “Steady State Anisotropy rss” value is on record as 0.187 ± 0.009; the “AV-increment (%)” value turned out to be 713.0%; the “rss, + AV” value turned out to be 0.187. Moreover, the QY in data set [3] was 0.91 and 0.91 ± 0.02. Moreover, on avidin (AV) [4], the “Maximum Absorbance” value was found to be 497 nm, the “Maximum Emission” value came to 524 nm, the “Abs (nm)” value came to 497 nm and the “Emission (nm)” value is on record as 524 nm. On avidin (AV) [5], the “Lifetime τ” value was 4.35 ± 0.01 ns and the “t (1), fluorescence lifetime” value stood at 4.35 ± 0.01. The compound further showed a W at streptavidin (SAV) of 50. The same compound came in with a W in data set [6] of 90 °.
